8 compounds from patent US6667306B1, “Platelet ADP receptor inhibitors” (Millennium Pharmaceuticals, Inc., priority 1998, dated 2003) can be followed below.

The subject of assay [1] is ADP-induced human platelet aggregation. As to the kind of experiment: Inhibition of ADP-mediated platelet aggregation in vitro (96-well microtiter assay, washed platelets). Format: cell-based. Conditions: for IC50: Platelet. On the procedure:
The effect of test Compounds 1-8 of, respectively, Examples 1-8 on ADP-induced human platelet aggregation was assessed in 96-well microtiter assay. Human venous blood was collected from healthy, drug-free volunteers into ACD (85 mM sodium citrate, 111 mM glucose, […] citric acid) containing PGI2 (1.25 ml ACD containing 1.6 μM PGI2/10 ml blood; PGI2 was from Sigma, St. Louis, Mo.). Platelet-rich plasma (PRP) was prepared by centrifugation at 160×g for 20 minutes at room temperature. Washed platelets were prepared by centrifuging PRP for 10 minutes at 730×g and resuspending the platelet pellet in CGS (13 mM sodium citrate, 30 mM glucose, 120 mM NaCl; 2 ml CGS/10 ml original blood volume) containing 1 U/ml apyrase (grade V, Sigma, St. Louis, Mo.). After incubation at 37° C. for 15 minutes, the platelets were collected by centrifugation at 730×g for 10 minutes and resuspended at a concentration of 3×10^8 platelets/ml in Hepes-Tyrode's buffer (10 mM Hepes; 138 mM NaCl, 5.5 mM glucose, 2.9 mM KCl, 12 mM NaHCO3, pH 7.4) containing 0.1% bovine serum albumin, 1 mM CaCl2 and 1 mM MgCl2. This platelet suspension was kept >45 minutes at 37° C. before use in aggregation assays.
Inhibition of ADP-dependent aggregation was determined in 96-well flat-bottom microtiter plates using a microtiter plate shaker and plate reader similar to the procedure described by Frantantoni et al., Am. J. Clin. Pathol. 94, 613 (1990). All steps were performed at room temperature. The total reaction volume of 0.2 ml/well included in Hepes-Tyrodes buffer/0.1% BSA: 4.5×10^7 apyrase-washed platelets, 0.5 mg/ml human fibrinogen (American Diagnostica, Inc., Greenwich, Conn.), serial dilutions of test compounds (buffer for control wells) in 0.6% DMSO. After about 5 minutes preincubation at room temperature, ADP was added to a final concentration of 2 μM which induces submaximal aggregation. Buffer was added instead of ADP to one set of control wells (ADP^−control). The OD of the samples was then determined at 490 nm using a microtiter plate reader (Softmax, Molecular Devices, Menlo Park, Calif.) resulting in the 0 minute reading. The plates were then agitated for 5 min on a microtiter plate shaker and the 5 minute reading obtained in the plate reader. Aggregation was calculated from the decrease of OD at 490 nm at t=5 minutes compared to t=0 minutes and expressed as % of the decrease in the ADP control samples corrected for changes in the unaggregated control samples.
In some experiments, 0.3 mM 8-sulphophenyltheophylline (8-SPT, Sigma, St. Louis, Mo.) was added to the reaction to block any potential adenosine receptor activity of test compounds.

Another assay addresses platelet ADP receptors (Homo sapiens, UniProt Q9H244). As to the kind of experiment: Inhibition of [^3H]2-MeS-ADP binding to platelets. As for the experimental part: All steps were performed at room temperature unless indicated otherwise.
Assay [2] has as its target T1, human P2Y1 receptor (hP2Y1) (Homo sapiens, UniProt P47900).
T1 construct: a genomic fragment encompassing the entire open reading frame of the human P2Y1 receptor; expressed in transfected cells; host or cells: Jurkat cells, clonal line hP2Y1-JA7, vector pcINeo
As to the kind of experiment: hP2Y1 receptor activity assay (2-MeS-ADP-induced intracellular calcium mobilization in hP2Y1-JA7 Jurkat cells). The settings on record: 10^-7 M 2-MeS-ADP, read-out: IC50 on 2-MeS-ADP-mediated intracellular calcium mobilization. It is filed as cell-based. On the technique in general: Calcium flux is commonly read through the fluorescence of an indicator in the cells.
Procedure: Therefore, hP2Y1 receptor activity of test compounds was assessed by measuring agonist-induced intracellular calcium mobilization in a mammalian cell line expressing the cloned receptor gene.
For intracellular calcium measurements, cells were collected by centrifugation, washed and resuspended in Hepes-Tyrodes buffer/0.1% BSA/1 mM CaCl2 at 10^7 cells/ml at 37° C. Fura-2AM (Molecular Probes, Eugene, Oreg.) was added to 4 μM in the presence of 0.008% Pluronic F-27 (Molecular Probes, Eugene, Oreg.) and incubation continued for 30 minutes at 37° C. in the dark with gentle agitation. Cells were collected by centrifugation and incubated for 15 minutes at 37° C. in buffer with 1 U apyrase/ml. Cells were then centrifuged and resuspended at 4° C. and 2×10^6 cells/ml. […] Calcium responses were determined for the agonist 2-MeS-ADP (2-methylthioadenosine diphosphate, trisodium salt, RBI, Natick, Ma.) at the submaximal concentration of 10^−7M in the absence and presence of various concentrations of test compounds. Maximum ratios were determined after lysis of cells with 100 μM digitonin, minimum ratios after addition of 20 mM iris and 10 mM EGTA. […] Increases in intracellular calcium levels were determined by subtraction of baseline levels from peak calcium levels.

Setting [3] is: washed human platelets, 2 μM ADP, mean of 3-12 independent experiments in duplicate, read-out: IC50 Aggregation (inhibition of ADP-dependent platelet aggregation).
Where [4] appears, read: Homo sapiens, units given with the value (nM to μM), read-out: IC50s of ADP-dependent aggregation of human platelets, span over the series.
[5] abbreviates: outdated human platelets, 1 nM [^3H]2-MeS-ADP, mean of 2-8 independent experiments in duplicate.

Molecules are shown by their SMILES. Like-named read-outs stand apart in the source and are kept apart here.

Sequence of platelet ADP receptors (Q9H244 whole entry): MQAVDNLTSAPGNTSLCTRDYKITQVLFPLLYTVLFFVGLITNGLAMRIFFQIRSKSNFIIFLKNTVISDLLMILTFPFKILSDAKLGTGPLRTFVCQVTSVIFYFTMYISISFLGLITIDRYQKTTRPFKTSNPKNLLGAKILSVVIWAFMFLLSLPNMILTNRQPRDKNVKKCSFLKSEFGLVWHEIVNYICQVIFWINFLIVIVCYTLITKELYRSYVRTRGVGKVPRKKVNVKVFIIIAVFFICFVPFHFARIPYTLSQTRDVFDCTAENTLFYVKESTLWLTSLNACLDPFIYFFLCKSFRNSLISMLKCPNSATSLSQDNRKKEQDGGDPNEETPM
T1 sequence (P47900 whole entry, the tested form may be a part): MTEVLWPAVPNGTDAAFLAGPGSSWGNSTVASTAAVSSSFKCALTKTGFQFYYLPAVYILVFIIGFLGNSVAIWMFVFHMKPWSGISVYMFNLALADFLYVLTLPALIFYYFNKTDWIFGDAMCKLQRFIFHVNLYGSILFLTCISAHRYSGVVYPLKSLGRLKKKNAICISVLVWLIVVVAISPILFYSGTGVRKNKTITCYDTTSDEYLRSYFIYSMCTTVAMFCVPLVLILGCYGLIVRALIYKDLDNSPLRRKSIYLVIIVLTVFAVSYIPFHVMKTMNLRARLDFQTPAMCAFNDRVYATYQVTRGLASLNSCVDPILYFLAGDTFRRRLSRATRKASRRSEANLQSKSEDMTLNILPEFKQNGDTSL

`CCOc1ccc2c(c1)SC1=NS(=O)(=O)C(C(=O)CS(=O)(=O)Nc3nc4ccc(OCC)cc4s3)=C(O)N12` [Compound 1, N^1-(6-Ethoxy-1,3-benzothiazol-2-yl)-2-(8-ethoxy-4-hydroxy-2,2-dioxo-2H-2l^6-benzo[4,5][1,3]thiazolo[2,3-c][1,2,4]thiadiazin-3-yl)-2-oxo-1-ethanesulfonamide]: in assay [1] (0.3 mM 8-SPT (adenosine receptor antagonist) added), the “potency on ADP-dependent aggregation in the presence of 8-sulphophenyltheophylline” value is “not reduced”. Moreover, the IC50 in assay [1] (Homo sapiens, read-out: IC50s of ADP-dependent aggregation of human platelets, span over the series) was not below 180 nM; in assay [1] (setting [3]), 180 nM; at platelet ADP receptors, 170 nM; in assay [2], more than 100000 nM.

With `O=C(CS(=O)(=O)Nc1nc2ccccc2s1)C1=C(O)N2C(=NS1(=O)=O)Sc1ccccc12` [Compound 2, N^1-(1,3-benzothiazol-2-yl)-2-(4-hydroxy-2,2-dioxo-2H-2l^6-benzo[4,5][1,3]thiazolo[2,3-c][1,2,4]thiadiazin-3-yl)-2-oxo-1-ethanesulfonamide], the IC50 is not below 180 nM in assay [1] (setting [4]) and 26000 nM in assay [1] (setting [3]).

For `Cc1ccc2c(c1)SC1=NS(=O)(=O)C(C(=O)CS(=O)(=O)Nc3nc4ccc(C)cc4s3)=C(O)N12` [Compound 3, N^1-(6-Methyl-13-benzothiazol-2-yl)-2-(8-methyl-4-hydroxy-2,2-dioxo-2H-2l^6-benzo[4,5][1,3]thiazolo[2,3-c][1,2,4]thiadiazin-3-yl)-2-oxo-1-ethanesulfonamide], the IC50 in assay [1] (setting [4]) is not below 180 nM; in assay [1] (setting [3]) it was 9500 nM; on platelet ADP receptors (setting [5]), 22000 nM.

Regarding `O=C(CS(=O)(=O)Nc1nc2ccc(Cl)cc2s1)C1=C(O)N2C(=NS1(=O)=O)Sc1cc(Cl)ccc12` [Compound 4, N^1-(6-Chloro-1,3-benzothiazol-2-yl)-2-(8-chloro-4-hydroxy-2,2-dioxo-2H-2l^6-benzo[4,5][1,3]thiazolo[2,3-c][1,2,4]thiadiazin-3-yl)-2-oxo-1-ethanesulfonamide], the figures for the IC50 in assay [1] (setting [4]) and in assay [1] (setting [3]) were not below 180 nM and 64000 nM, respectively.

As to `CS(=O)(=O)c1ccc2c(c1)SC1=NS(=O)(=O)C(C(=O)CS(=O)(=O)Nc3nc4ccc(S(C)(=O)=O)cc4s3)=C(O)N12` [Compound 5, N^1-(6-Methylsulfonyl-1,3-benzothiazol-2-yl)-2-(8-methylsulfonyl-4-hydroxy-2,2-dioxo-2H-2l^6-benzo[4,5][1,3]thiazolo[2,3-c][1,2,4]thiadiazin-3-yl)-2-oxo-1-ethanesulfonamide], the figures for the IC50 in assay [1] (setting [4]) and in assay [1] (setting [3]) were not below 180 nM and 700 nM, respectively.

Regarding `O=C(CS(=O)(=O)Nc1nc2ccc([N+](=O)[O-])cc2s1)C1=C(O)N2C(=NS1(=O)=O)Sc1cc([N+](=O)[O-])ccc12` [Compound 6, N^1-(6-Nitro-1,3-benzothiazol-2-yl)-2-(8-nitro-4-hydroxy-2,2-dioxo2H-2l^6-benzo[4,5][1,3]thiazolo[2,3-c][1,2,4]thiadiazin-3-yl)-2-oxo-1-ethanesulfonamide], the IC50 in assay [1] (setting [4]) was not below 180 nM; in assay [1] (setting [3]), 50000 nM.

For `O=C(CS(=O)(=O)Nc1nc2ccc(F)cc2s1)C1=C(O)N2C(=NS1(=O)=O)Sc1cc(F)ccc12` [Compound 7, N^1-(6-Fluoro-1,3-benzothiazol-2-yl)-2-(8-fluoro-4-hydroxy-2,2-dioxo-2H-2l^6-benzo[4,5][1,3]thiazolo[2,3-c][1,2,4]thiadiazin-3-yl)-2-oxo-1-ethanesulfonamide], the figures for the IC50 in assay [1] (setting [4]) and in assay [1] (setting [3]) were not below 180 nM and more than 120000 nM, respectively.

Consider `COc1ccc2c(c1)SC1=NS(=O)(=O)C(C(=O)CS(=O)(=O)Nc3nc4ccc(OC)cc4s3)=C(O)N12` [Compound 8, N^1-(6-Methoxy-1,3-benzothiazol-2-yl)-2-(8-methoxy-4-hydroxy-2,2-dioxo-2H-2l^6-benzo[4,5][1,3]thiazolo[2,3-c][1,2,4]thiadiazin-3-yl)-2-oxo-1-ethanesulfonamide], for which the results for the IC50 (in assay [1] (setting [4]); in assay [1] (setting [3]); on platelet ADP receptors (setting [5])) were not below 180 nM, 1500 nM and 800 nM, respectively.
